Target: T1, CXCR4 (Homo sapiens, UniProt P61073)
T1 construct: a human T cell strain in which CXCR4 is known to be expressed; endogenous in cells; host or cells: CEM cells (human T cell strain)
Assay: Study for inhibition of binding human SDF-1 to CEM cells
Conditions: human T cell strain CEM cells, 125I-SDF-1, 4° C. for 60 minutes
Description: As mentioned above, a more direct procedure is a screening a compound that prevents for HIV from binding to CXCR4, which is a receptor on CD4+ cell, on an assay system using HIV. However, using HIV for a large-scale screening is not practical due to its difficult handling. On the other hand, both of T cell-directed (X4) HIV-1 and SDF-1 bind to CXCR4 and therefore CXCR4 binding sites at both of HIV-side and SDF-1-side as well as SDF-1- and HIV-binding sites at the CXCR4 side may presumably have any common characteristics. […]
To human T cell strain CEM cells in a binding buffer (containing HEPES and BSA), the test compound and ^125I-SDF-1 (NEN) were added and the mixture was incubated at 4° C. for 60 minutes. […] An amount of the radioactivity bound to the CEM cells was measured using Top Count (Packard) and inhibition (%) of the test compound was calculated according to the following equation: Inhibition=(Et−Ea)/(Et−Ec)×100
Et: amount of radioactivity when the test compound is not added,
Ec: amount of radioactivity when non-radioactive SDF-1 (Pepro Tech) is added in an amount of 1000 times as much as ^125I-SDF-1 as a test compound, and
Ea: amount of radioactivity when the test compound is added.

T1 sequence (P61073 whole entry): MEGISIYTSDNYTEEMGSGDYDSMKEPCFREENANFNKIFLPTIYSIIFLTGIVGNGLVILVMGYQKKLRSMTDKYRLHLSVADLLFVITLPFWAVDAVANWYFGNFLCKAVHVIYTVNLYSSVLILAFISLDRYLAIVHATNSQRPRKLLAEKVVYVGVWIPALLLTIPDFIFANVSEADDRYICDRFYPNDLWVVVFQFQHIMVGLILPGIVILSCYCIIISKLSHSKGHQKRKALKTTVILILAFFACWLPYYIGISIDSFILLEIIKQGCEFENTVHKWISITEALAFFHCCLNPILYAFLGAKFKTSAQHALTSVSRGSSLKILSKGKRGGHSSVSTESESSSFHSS

NCCC[C@@H]1[C@@H](Nc2nccc(N3CCCCCC3)n2)CCN1C1CCCCC1 [compound 10-2, N-[(2R,3S)-2-(3-aminopropyl)-1-cyclohexyl-3-pyrrolidinyl]-4-(1-azepanyl)-2-pyrimidinamine]
IC50: 1.6 nM

Reference: patent publication US8680092B2, “Nitrogenous heterocyclic compound and medicinal use thereof” (Ono Pharmaceutical Co., Ltd., priority 2005, dated 2014)
